From US20260364184A1, “COMPOUND BASED ON OXOISOINDOLINYL-SUBSTITUTED TETRAHYDROPYRIMIDINE-DIONE AND USE THEREOF” (GLUETACS THERAPEUTICS (SHANGHAI) CO., LTD., priority 2023, published 2026) come the findings set out here.

What all share (format): cell-based
The test system of test [1] is Human Acute T Lymphoblastic Leukemia Cells (Molt-4). Kind of test: Inhibition of Molt-4 cell proliferation (CellTiter luminescent viability). As to conditions: Homo sapiens, MOLT-4, 96 h, Table IA2, IRAK4 inhibitor-based, 96 hours; for inhibition at 0.01 µM: Molt-4, 10 nM, read-out: Inhibition Rate at 10 nM (%); for inhibition at 0.5 µM: Molt-4, 500 nM, read-out: Inhibition Rate at 500 nM (%).

Test [2] can be described thus: Inhibition of RPMI-8226 cell proliferation (CellTiter luminescent viability). As to conditions: Homo sapiens; Table IA4, IRAK4 inhibitor-based; RPMI-8226, 10 nM, 96 hours; read-out: Inhibition Rate at 10 nM (%).
Test [3] has as its system Human B-Cell Lymphoma Cells (RPMI-8226). The description is as above. As to conditions: Table IA4, IRAK4 inhibitor-based, RPMI-8226, 500 nM, 96 hours, read-out: Inhibition Rate at 500 nM (%).
Test [4] has as its target T1, IRAK4 (Homo sapiens, UniProt Q9NWZ3).
T1 construct: expression of target proteins in cells; endogenous in cells
T1 sequence (Q9NWZ3 1-460): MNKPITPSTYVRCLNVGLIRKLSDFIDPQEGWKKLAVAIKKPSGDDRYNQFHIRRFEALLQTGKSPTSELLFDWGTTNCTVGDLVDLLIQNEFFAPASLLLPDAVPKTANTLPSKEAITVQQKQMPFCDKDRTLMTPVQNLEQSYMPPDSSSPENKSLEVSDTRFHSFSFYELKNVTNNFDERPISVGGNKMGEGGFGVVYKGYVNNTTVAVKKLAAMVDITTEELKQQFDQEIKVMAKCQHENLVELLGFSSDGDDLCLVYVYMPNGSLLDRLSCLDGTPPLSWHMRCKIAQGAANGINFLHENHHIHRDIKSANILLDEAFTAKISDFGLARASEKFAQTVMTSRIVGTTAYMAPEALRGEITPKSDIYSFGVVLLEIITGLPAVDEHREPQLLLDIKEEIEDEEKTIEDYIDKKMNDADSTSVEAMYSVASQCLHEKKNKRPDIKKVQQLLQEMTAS
Kind of test: Western blot degradation of IRAK4. As to conditions: hPBMC Cell; 24 hours. In short, it runs like this:
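Cells treated with compound, lysed, and target protein detected by Western blot (SDS-PAGE, nitrocellulose transfer). DC50 taken as the concentration giving band grayscale half that of DMSO control, estimated by concentration-response fitting; remaining protein (%) from target band normalised to internal control band; degradation (%) = 1 − remaining.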
On the technique in general: A western blot detects proteins with antibodies after separation by electrophoresis.

Test [5] relates to Human Multiple myeloma cell line (MM.1S). Kind of test: Inhibition of MM.1S cell proliferation (CellTiter luminescent viability). The following applies: Homo sapiens, MM1.S, Table IA5, IRAK4 inhibitor-based, 96 hours; for inhibition at 0.01 µM: 10 nM, read-out: Inhibition Rate at 10 nM (%); for inhibition at 0.5 µM: 500 nM, read-out: Inhibition Rate at 500 nM (%). In short, it runs like this: (§1)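 Cells are seeded in 96-well plates, cultured at 37 °C, 5% CO2, and treated next day with 5-fold serial compound dilutions (stock series from 2000 μM; 0.5 μL into 100 μL medium). Viability is read by CellTiter-Meiluncell luminescence after the set exposure, and IC50 is taken from growth-inhibition curves.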

Test [6] has as its system Human myeloid monocytic leukemia cell line (MV-4-11). Kind of test: Inhibition of MV-4-11 cell proliferation (CellTiter luminescent viability). As to conditions: Homo sapiens, MV4-11, Table IA3, IRAK4 inhibitor-based, 96 hours; for inhibition at 0.01 µM: MV-4-11, 10 nM, read-out: Inhibition Rate at 10 nM (%); for inhibition at 0.5 µM: MV-4-11, 500 nM, read-out: Inhibition Rate at 500 nM (%). The gist of the method:
as §1

With `COc1cc2nn([C@H]3CC[C@H](CN4C5CCC4CN(c4ccc6c(c4)C(=O)N(N4CCC(=O)NC4=O)C6=O)C5)CC3)cc2cc1NC(=O)c1cccc(C(F)(F)F)c1` [GT-08667, N-(2-((1r,4r)-4-((3-(2-(2,4-dioxotetrahydropyrimidin-1(2H)-yl)-1,3-dioxoisoindolin-5-yl)-3,8-diazabicyclo[3.2.1]octan-8-yl)methyl)cyclohexyl)-6-methoxy-2H-indazol-5-yl)-3-(trifluoromethyl)benzamide], the inhibition (in general, the drop in the measured response relative to a control, in per cent) at 0.01 µM in test [1] was 20 to 40%; in test [2] it was 20 to 25%. In addition, the figures for the inhibition at 0.5 µM in test [1] and in test [3] were 20 to 40% and 30 to 40%, respectively. Further, the “Degradation of substrate protein IRAK4 (substrate protein remaining %)” value (from here on “Degradation … (substrate protein remaining %)”) in test [4] is recorded as “A (0%≤substrate protein remaining %≤80%)”.
As for `COc1cc2nn([C@H]3CC[C@H](CN4CCN(C5CCN(c6ccc7c(c6)C(=O)N(N6CCC(=O)NC6=O)C7=O)CC5(F)F)CC4)CC3)cc2cc1NC(=O)c1cccc(C(F)(F)F)n1` (stereo partly shown) [GT-08659, N-(2-((1r,4r)-4-((4-(1-(2-(2,4-dioxotetrahydropyrimidin-1(2H)-yl)-1,3-dioxoisoindolin-5-yl)-3,3-difluoropiperidin-4-yl)piperazin-1-yl)methyl)cyclohexyl)-6-methoxy-2H-indazol-5-yl)-6-(trifluoromethyl) picolinamide], the inhibition at 0.01 µM is 10 to 15% in test [1] and 15 to 20% in test [2]. In addition, the inhibition at 0.5 µM in test [1] is 20 to 40%; in test [3], 30 to 40%. Further, the “Degradation … (substrate protein remaining %)” value in test [4] is “A (0%≤substrate protein remaining %≤80%)”.
As to `O=C1CCN(N2Cc3cc(CN4CCN(c5ccc(-n6cc(NC(=O)c7coc(-c8ccnc(NCC(F)(F)F)c8)n7)c(C(F)F)n6)cc5)CC4)ccc3C2=O)C(=O)N1` [GT-05318, N-(3-(difluoromethyl)-1-(4-(4-((2-(2,4-dioxotetrahydropyrimidin-1(2H)-yl)-1-oxoisoindolin-5-yl)methyl)piperazin-1-yl)phenyl)-1H-pyrazol-4-yl)-2-(2-((2,2,2-trifluoroethyl)amino)pyridin-4-yl) oxazole-4-carboxamide], the inhibition at 0.01 µM in test [5] fell in the range of 10 to 15%; in test [1], 3 to 7%; in test [6] it was 80 to 100%; in test [2], 20 to 25%. Moreover, the inhibition at 0.5 µM in test [5] lay within 60 to 80%; in test [1], 40 to 60%; in test [6] it was 100 to 110%; in test [3], 60 to 80%. Besides, in test [4], the “Degradation … (substrate protein remaining %)” value is “A (0%≤substrate protein remaining %≤80%)”.
Turning to `O=C1CCN(N2C(=O)c3ccc(N4CCC(CN5CCC(n6cc(NC(=O)c7cnn8ccc(N9CCOCC9)nc78)c(C(F)F)n6)CC5)CC4)cc3C2=O)C(=O)N1` [GT-05291, N-(3-(difluoromethyl)-1-(1-((1-(2-(2,4-dioxotetrahydropyrimidin-1(2H)-yl)-1,3-dioxoisoindolin-5-yl)piperidin-4-yl)methyl)piperidin-4-yl)-1H-pyrazol-4-yl)-5-morpholinopyrazolo[1,5-a]pyrimidine-3-carboxamide], the inhibition at 0.01 µM in test [5] was 10 to 15%; in test [6] it was 50 to 60%; in test [2], 25 to 30%. Also, the inhibition at 0.5 µM in test [5] lay within 20 to 25%; in test [6], 60 to 80%; in test [3] it was 25 to 30%. Also, the “Degradation … (substrate protein remaining %)” value in test [4] is on record as “A (0%≤substrate protein remaining %≤80%)”.
As for `O=C1CCN(N2C(=O)c3ccc(CN4CCC(n5cc(NC(=O)c6coc(-c7ccnc(NCC(F)(F)F)c7)n6)c(C(F)F)n5)CC4)cc3C2=O)C(=O)N1` [GT-05188, N-(3-(difluoromethyl)-1-(1-((2-(2,4-dioxotetrahydropyrimidin-1(2H)-yl)-1,3-dioxoisoindolin-5-yl)methyl)piperidin-4-yl)-1H-pyrazol-4-yl)-2-(2-((2,2,2-trifluoroethyl)amino)pyridin-4-yl) oxazole-4-carboxamide], the inhibition at 0.01 µM in test [5] fell in the range of 10 to 15%; in test [6] it was 36 to 45%; in test [2], 30 to 40%. Moreover, the inhibition at 0.5 µM in test [5] is 30 to 40%; in test [6] it was 80 to 100%; in test [3] it was 40 to 60%. In addition, the “Degradation … (substrate protein remaining %)” value in test [4] is reported as “A (0%≤substrate protein remaining %≤80%)”.
As to `COc1cc2nn([C@H]3CC[C@H](CN4CCN(c5ccc6c(c5)C(=O)N(N5CCC(=O)NC5=O)C6=O)CC4)CC3)cc2cc1NC(=O)c1cccc(C(F)(F)F)c1` [GT-08661, N-(2-((1r,4r)-4-((4-(2-(2,4-dioxotetrahydropyrimidin-1(2H)-yl)-1,3-dioxoisoindolin-5-yl)piperazin-1-yl)methyl)cyclohexyl)-6-methoxy-2H-indazol-5-yl)-3-(trifluoromethyl)benzamide], the inhibition at 0.01 µM lay in the range of 15 to 20% in test [1] and 20 to 25% in test [2]. For the same compound, the inhibition at 0.5 µM in test [1] is 15 to 20%; in test [3], 25 to 30%. Further, the “Degradation … (substrate protein remaining %)” value in test [4] is “A (0%≤substrate protein remaining %≤80%)”.
In the case of `COc1cc2nn([C@H]3CC[C@H](CN4CCN(c5ccc6c(c5F)C(=O)N(N5CCC(=O)NC5=O)C6=O)CC4)CC3)cc2cc1NC(=O)c1cccc(C(F)(F)F)c1` [GT-08669, N-(2-((1r,4r)-4-((4-(2-(2,4-dioxotetrahydropyrimidin-1(2H)-yl)-4-fluoro-1,3-dioxoisoindolin-5-yl)piperazin-1-yl)methyl)cyclohexyl)-6-methoxy-2H-indazol-5-yl)-3-(trifluoromethyl)benzamide], the results for the inhibition at 0.01 µM in test [1] and in test [2] were 20 to 40% and 20 to 25%, respectively. Besides, the inhibition at 0.5 µM was 20 to 40% in test [1] and 30 to 40% in test [3]. In addition, in test [4], the “Degradation … (substrate protein remaining %)” value is “A (0%≤substrate protein remaining %≤80%)”.
